In PubChem BioAssay AID624344 (Sanford-Burnham Center for Chemical Genomics, 2012):
Active and inactive are the calls of the source. The rule behind the calls is not given here.

Columns and labels:
[1] = NFkB reporter suppression in cystic fibrosis bronchial cells – cell-based, uHTS hits, panel, cytotoxicity readout, dose response (AID 624344); settings: CF bronchial epithelial cells, PAF-induced NFkB reporter inhibition; with PAF, mean of runs
Cytotoxicity = assay: as above; settings: CF bronchial epithelial cells, mean of runs

SMILES: Cc1cccc(N2CCN(C(=O)CCn3c(=S)[nH]c4cc5c(cc4c3=O)OCO5)CC2C)c1 (stereo not given)
- IC50 [1]: 6.2 µM
- IC50 (Cytotoxicity): 18.5 µM

SMILES: CC(C)C[C@@H](CN1CCC[C@@H]1CN1C(=S)NC[C@@H]1Cc1ccc(O)cc1)N1C[C@H](Cc2ccc(O)cc2)N(CC2CCCCC2)C1=S
- IC50 [1]: 17 µM
- IC50 (Cytotoxicity): 18.8 µM

SMILES: C#CCN(C[C@@H]1[C@@H](OC(=O)NC2CC2)[C@@H](OC(=O)NC2CC2)Cn2c(=O)ccc(=O)n21)S(=O)(=O)c1ccc(C)cc1
- IC50 [1]: 2.73 µM
- IC50 (Cytotoxicity): 19.2 µM

SMILES: Cc1cc(C)nc(Sc2ncnc(N)c2[N+](=O)[O-])n1
- IC50 [1]: 5.09 µM
- IC50 (Cytotoxicity): 13.5 µM

SMILES: Cc1nnc(Sc2nc3ccccc3o2)c2ccccc12
- IC50 [1]: 6.57 µM
- IC50 (Cytotoxicity): 5.61 µM

SMILES: CCOc1ccc(C(C(=O)NC2CCCC2)N(C(=O)c2snc(C(N)=O)c2N)c2cccc(O)c2)cc1 (stereo not given)
- IC50 [1]: 4.37 µM
- IC50 (Cytotoxicity): 7.27 µM

SMILES: C=C1C(=O)C2=CC1CCC(=O)C1(C)CCC(OC(C)=O)C(C)(C)C1CC2O (stereo not given)
- IC50 [1]: 1.35 µM
- IC50 (Cytotoxicity): 13.3 µM

SMILES: COC(=O)c1ccc(-c2ccc(OC)c([C@H]3[C@H]4C=CC[C@@H](C)[C@@H]4C(=O)N3Cc3ccccc3)c2)cc1
- IC50 [1]: 2.4 µM
- IC50 (Cytotoxicity): 29.8 µM

SMILES: O=S(=O)(c1ccc(Br)cc1)c1cnc2ccccc2n1
- IC50 [1]: 6.57 µM
- IC50 (Cytotoxicity): 7.65 µM

SMILES: Cc1nnc(SCC(=O)N2CCC(c3noc4ccc(F)cc34)CC2)s1
- IC50 [1]: 1.18 µM
- IC50 (Cytotoxicity): > 79 µM (inactive)

SMILES: COc1cccc(-c2nnc3n2N=C(C(C)(C)C)CS3)c1
- IC50 [1]: 0.442 µM
- IC50 (Cytotoxicity): 11.4 µM

SMILES: COc1ccc(-n2nnnc2C(c2cccs2)N2CCC(n3c(=O)[nH]c4ccccc43)CC2)cc1 (stereo not given)
- IC50 [1]: 5.05 µM
- IC50 (Cytotoxicity): 14.2 µM

SMILES: Cc1ncc(CC(=O)n2cc(C(=O)c3cc(Cl)ccc3O)cn2)s1
- IC50 [1]: 7.56 µM
- IC50 (Cytotoxicity): 44.5 µM

SMILES: COc1ccc(-c2cn[nH]c2-c2ccc(OC)cc2)cc1
- IC50 [1]: 2.53 µM
- IC50 (Cytotoxicity): 63.5 µM (inactive)

SMILES: CCN(CC)CCNC(=O)c1ccc(NC(=O)C2CCN(c3ncnc4sc(C)c(C)c34)CC2)cc1
- IC50 [1]: 6.33 µM
- IC50 (Cytotoxicity): 16.1 µM

SMILES: C=C1C(=O)[C@]23C[C@H]1CCC2[C@@]1(C)C(C[C@@H]3O)[C@](C)(C(=O)O)CC[C@@H]1O (stereo not given in full)
- IC50 [1]: 1.98 µM
- IC50 (Cytotoxicity): 13.1 µM

SMILES: Cc1cccc(NC(=O)c2nc(S(=O)(=O)Cc3ccccc3)ncc2Cl)c1
- IC50 [1]: 2.51 µM
- IC50 (Cytotoxicity): 3.39 µM

SMILES: COc1ccc(-c2cn[nH]c2-c2ccc(OC)cc2O)cc1
- IC50 [1]: 2.92 µM
- IC50 (Cytotoxicity): 46.4 µM

SMILES: Cc1ccnc(NC(=O)CSc2cc(=O)n(C)c3ccccc23)c1
- IC50 [1]: 7.95 µM
- IC50 (Cytotoxicity): 39.4 µM

SMILES: CC1CCc2c(sc3ncnc(N4CCOCC4)c23)C1 (stereo not given)
- IC50 [1]: 4.1 µM
- IC50 (Cytotoxicity): 20.4 µM

SMILES: CCN(c1ccc(OC)cc1)c1ncnc2nc[nH]c12
- IC50 [1]: 3.62 µM
- IC50 (Cytotoxicity): > 79 µM (inactive)

SMILES: COc1ccc(COC(=O)C2=C(C)NC(=O)NC2c2ccc(OC)cc2)cc1 (stereo not given)
- IC50 [1]: 6.54 µM
- IC50 (Cytotoxicity): 44.5 µM

SMILES: COc1cccc(-c2nnc3sc(C4CCCCC4)nn23)c1
- IC50 [1]: 0.82 µM
- IC50 (Cytotoxicity): 10.6 µM

SMILES: CCOc1ccc(Nc2ncnc3ccc([N+](=O)[O-])cc23)cc1
- IC50 [1]: 1.67 µM
- IC50 (Cytotoxicity): 21.4 µM

SMILES: Cn1ncc2c(O/N=C(\N)c3ccc(C(C)(C)C)cc3)ncnc21
- IC50 [1]: 8.28 µM
- IC50 (Cytotoxicity): 34.9 µM

SMILES: COc1ccc(-c2[nH]ncc2-c2ccc3c(c2)OCCO3)c(O)c1
- IC50 [1]: 0.186 µM
- IC50 (Cytotoxicity): 65.4 µM (inactive)

SMILES: Cc1ccc(NS(=O)(=O)c2ccc(-c3cnc(C4CC4)o3)cc2)c(C)c1
- IC50 [1]: 14.2 µM
- IC50 (Cytotoxicity): 32.5 µM

SMILES: CCc1ccc(N(CC)c2ncnc3nc[nH]c23)cc1
- IC50 [1]: 1.82 µM
- IC50 (Cytotoxicity): > 79 µM (inactive)

SMILES: CC(C)Cc1nc2oc3c(NCC4CCCO4)ncnc3c2c2c1CCC2 (stereo not given)
- IC50 [1]: 2.87 µM
- IC50 (Cytotoxicity): 3.76 µM

SMILES: C=C(c1ccc2nc(NC(=O)OC)[nH]c2c1)c1cccs1
- IC50 [1]: 5.04 µM
- IC50 (Cytotoxicity): 25.6 µM

SMILES: COc1ccc(Nc2nc(-c3ccccc3)nc3ccccc23)cc1S(=O)(=O)N1CCOCC1
- IC50 [1]: 4.84 µM
- IC50 (Cytotoxicity): 7.17 µM

SMILES: N#Cc1cccc(NC(=O)COC(=O)c2ccccc2C(=O)c2ccc(Cl)c([N+](=O)[O-])c2)c1
- IC50 [1]: 2.66 µM
- IC50 (Cytotoxicity): 9.79 µM

SMILES: COC(=O)N1C(=O)[C@@](c2ccccc2)(C(C)C)N1C(=O)OC
- IC50 [1]: 4.26 µM
- IC50 (Cytotoxicity): 38.7 µM

SMILES: CCCCCOC(=O)c1[nH]c2c(c1C)C(=O)CC(c1ccco1)C2 (stereo not given)
- IC50 [1]: 10.8 µM
- IC50 (Cytotoxicity): > 79 µM (inactive)

SMILES: O=[N+]([O-])c1cccc(/C=N/Nc2cc(N3CCOCC3)ncn2)c1
- IC50 [1]: 3.21 µM
- IC50 (Cytotoxicity): 19.1 µM

SMILES: CNC(=O)COC(=O)c1ccccc1C(=O)c1ccc(Cl)c([N+](=O)[O-])c1
- IC50 [1]: 1.01 µM
- IC50 (Cytotoxicity): 3.7 µM

SMILES: O=C(Nc1cccc(Cl)c1)Nc1csc([N+](=O)[O-])c1
- IC50 [1]: 4.12 µM
- IC50 (Cytotoxicity): 0.788 µM

SMILES: COc1ccccc1/C=C/C(=O)c1c2c(c(C)[nH]c1=O)CCCC2
- IC50 [1]: 2.94 µM
- IC50 (Cytotoxicity): 41.6 µM

SMILES: CCSc1nsc(NC(=O)Nc2cccc(OC)c2)n1
- IC50 [1]: 4.22 µM
- IC50 (Cytotoxicity): 23.3 µM

SMILES: O=C1NC(=S)N/C1=C/c1cccnc1
- IC50 [1]: 5.96 µM
- IC50 (Cytotoxicity): 41.8 µM
